What all share (settings): 15 mM H2O2, 50 mM potassium phosphate pH 7, 1 min preincubation; read-out: 3-AT IC50
One assay concerns the target L. pyrrhocoris catalase (Leptomonas pyrrhocoris, UniProt A0A0M9FX30). Description: biochemical. The protocol: (§1) The enzymatic inhibition was measured with 15 mM H2O2 and 50 mM potassium phosphate, pH 7. The enzyme was incubated with different concentrations of inhibitors (KCN or 3-amino-1,2,4-triazole, hereafter denoted as 3-AT, both from MilliporeSigma) for one minute, then the substrate was added and the residual activity was measured at 240 nm for 2 min [56]. All measurements were performed in triplicate.

Assay [1] addresses V. ingenoplastis catalase. It counts as biochemical, Vickermania ingenoplastis. The protocol: as §1
Assay [2] has as its target Blastocrithidia sp. catalase. The assay is classed as biochemical. The protocol: as §1

L. pyrrhocoris catalase, sequence (A0A0M9FX30 entry or part of it): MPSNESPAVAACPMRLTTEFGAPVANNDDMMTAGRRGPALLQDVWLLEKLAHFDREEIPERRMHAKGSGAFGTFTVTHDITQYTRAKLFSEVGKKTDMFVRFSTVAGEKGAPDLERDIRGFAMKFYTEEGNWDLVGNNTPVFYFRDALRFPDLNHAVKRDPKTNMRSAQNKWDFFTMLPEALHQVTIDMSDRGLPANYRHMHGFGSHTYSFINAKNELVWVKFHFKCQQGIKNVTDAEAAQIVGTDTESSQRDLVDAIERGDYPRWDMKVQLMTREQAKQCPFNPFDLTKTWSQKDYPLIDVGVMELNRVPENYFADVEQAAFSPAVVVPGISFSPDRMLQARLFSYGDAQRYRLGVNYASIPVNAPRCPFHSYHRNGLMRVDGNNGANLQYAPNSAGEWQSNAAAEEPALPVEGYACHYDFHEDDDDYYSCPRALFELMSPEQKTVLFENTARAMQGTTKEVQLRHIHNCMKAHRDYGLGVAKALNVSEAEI

Turning to `Nc1nc[nH]n1` [3-AT, 3-amino-1,2,4-triazole], the IC50 on L. pyrrhocoris catalase worked out at 10.4 mM; in assay [1] it was 11.4 mM; in assay [2] it was 15.6 mM.

By IC50 is commonly meant the concentration at which inhibition is half-maximal.

Source of the values: paper PMC8773446, “Comparative Analysis of Three Trypanosomatid Catalases of Different Origin” (Antioxidants, 2021).
